Patent EP4631503A1, “AVL-292 OR MK-5108 FOR USE IN THE TREATMENT OF PDAC” (priority 2024, dated 2025)
Read-outs that look alike come from different tables or passages of the source.

Legend:
HPAF II = assay: MTT cell viability assay; format: cell-based; conditions: Homo sapiens, 48 h
Description: Pane1 and HPAF II cells were cultured with DMEM (D0822, Sigma-Aldrich) supplemented with 10% fetal bovine serum (FBS, F7524, Sigma-Aldrich), 1% P/S (P4333, Sigma-Aldrich). […] Drugs were treated to cells for two days at 10µM. Cell viability was measured by MTT assay (M6494, ThermoFisher) by following the manufacturer's instructions. O.D values were detected with a microplate reader (Hidex Sense Beta Plus).

MTT cell viability assay = format: cell-based; conditions: Homo sapiens, PANC-1, 48 h, Pane1 cells, two days
Description: Pane1 and HPAF II cells were cultured with DMEM (D0822, Sigma-Aldrich) supplemented with 10% fetal bovine serum (FBS, F7524, Sigma-Aldrich), 1% P/S (P4333, Sigma-Aldrich). For siRNA treatment, 200,000 cells for a 6well plate and 20,000 cells per well for a 96well plate were seeded. siRNAs were purchased in Origene, CDCA5 (SR314367, Origene), KIF18A (SR313129, Origene), KIF23 (SR306300, Origene), TPX2 (SR307905, Origene), and cells were transfected by Lipofectamine® RNAiMAX (13778-075, Invitrogen) for two days. Small molecules which repositioned were purchased by AVL-292 (HY-18012, MCE), BCI-50 (HY-17553, MCE), MK-5108 (HY-13252, MCE), AZD1208 (HY-15604, MCE), SKA-31 (HY111655, MCE), Y-26763 (HY-101069, MCE), Estropipate (HY-B1361, MCE), Tiquizium (sc-474386, Santa Cruz), Acyclovir (HY-17422, MCE), and Cyproterone acetate (HY-13604, MCE) and dissolved into DMSO. Drugs were treated to cells for two days at 10µM. Cell viability was measured by MTT assay (M6494, ThermoFisher) by following the manufacturer's instructions. O.D values were detected with a microplate reader (Hidex Sense Beta Plus).

cleaved PRAP = assay: Western blot, apoptotic marker; format: cell-based; conditions: apoptotic gene
Description: (§1) Pane1 and HPAF II cells were seeded into a 6-well plate at 200,000 cells per well concentration. After siRNA transfection and drug treatment, whole cell lysate was prepared with CelLytic M (C2978, Sigma-Aldrich) buffer and samples were prepared with 2x Laemmli Sample Buffer (1610737, Biorad) at 20µg protein lysate. SDS PAGE was performed Mini-PROTEAN® TGX™ Precast Gels (Bio-Rad) and transferred using Trans-Blot® Turbo™ Transfer System (Bio-Rad). CDCA5 (ab192237, abcam), KIF18A (ab72417, abcam), KIF23 (HPA068831, Sigma Aldrich), TPX2 (ab252944, abeam), Aurora A (ab108353, abeam), Aurora B (ab287960, abcam), PARP (9542S, Cell signaling), […] (ab2324, abcam), β-actin (ab8227, abeam), GAPDH (ab8245, abeam), and α-tubulin (ab7291, abcam) were blotted as a primary antibody for overnight. Secondary antibodies, Goat Anti-Rabbit HRP (ab205718) and goat anti-mouse IgG-HRP (sc2005, Santa Cruz Biotechnology, Inc.) were blotted for one hour. The protein band was detected with ImageQuantTMLAS 500 (29-0050-63, GE).

[1] = Western blot, apoptotic marker; format: cell-based; conditions: apoptotic gene
Description: as §1

[2] = taken orally, phase I trial; cited from earlier work
AURKA = assay: Western blot, protein expression level; format: cell-based; conditions: cells, 10 µM, in words
Description: as §1

CDCA5 = assay: Western blot, protein expression level; format: cell-based; conditions: cells, 10 µM, in words
Description: as §1

AURKB = assay: Western blot, protein expression level; format: cell-based; conditions: cells, 10 µM, in words
Description: as §1

TPX2 = assay: Western blot, protein expression level; format: cell-based; conditions: cells, 10 µM, in words
Description: as §1

KIF23 = assay: Western blot, protein expression level; format: cell-based; conditions: cells, 10 µM, in words
Description: as §1

KIF18A = assay: Western blot, protein expression level; format: cell-based; conditions: Pane1 cells, 10 µM, in words
Description: as §1

PDAC = conditions: phase II clinical trials; cited from earlier work

Row | SMILES | viability at 10 µM (HPAF II; HPAF-II) | viability at 10 µM (MTT cell viability assay) | protein expression level of cleaved PRAP (cleaved PRAP) | protein expression level of Cas9 [1] | tolerability in patients [2] | viability at 10 µM (HPAF II; HPAF II cells, 10µM, two days, read-out: viability) | AURKA expression change (AURKA) | CDCA5 expression change (CDCA5) | AURKB expression change (AURKB) | TPX2 expression change (TPX2) | KIF23 expression change (KIF23) | KIF18A expression change (KIF18A) | extended survival, average (PDAC)
1 | C=CC(=O)Nc1cccc(Nc2nc(Nc3ccc(OCCOC)cc3)ncc2F)c1 [AVL-292] | 71.6% | 60.7% | increased | increased |  |  |  |  |  |  |  |  | 
2 | O=C(O)[C@]1(Cc2cccc(Nc3nccs3)n2)CC[C@@H](Oc2cccc(Cl)c2F)CC1 [MK-5108] |  | 45.8% | increased | increased | well tolerated | 69.5% | over-expressed | over-expressed | no obvious effect | over-expressed | over-expressed | over-expressed | 
3 | CN(C)C(=N)N=C(N)N [Metformin] |  |  |  |  |  |  |  |  |  |  |  |  | 0.8 months
